Test results: patent EP0116444A2, “Improvements in or relating to benzazepine derivatives” (ELI LILLY AND COMPANY, priority 1983, dated 1984)
Structures can show the parent of a compound that is named as a salt. Where two headings read alike, the source gives them in different places.

Tested on: spontaneously hypertensive rats
Test: Determination of antihypertensive activity (blood pressure and heart rate) in anesthetized spontaneously hypertensive rats
Type: in vivo
Conditions: 10 mg./kg. i.p. in aqueous solution, anesthetized spontaneously hypertensive male rats, average of two or more experiments; for change in vivo at 10 mg/kg: Rattus norvegicus, ip
Description: Spontaneously hypertensive male rats were anesthetized with methoxyflurane and α-chloralose (120 mg./kg., i.v.). An aqueous solution of the compound of formula I to be tested was administered i.p. to the animal following a 15-20 minute equilibrium period. Systemic arterial blood pressure was measured from the right carotid artery via a Statham P23 ID pressure transducer and recorded on a Model R411 Beckman Dynograph recorder. Heart rate was recorded with a Beckman 9857B cardiotachometer triggered by the pulse pressure. Mean arterial pressure was calculated as the diastolic pressure plus one third of the pulse pressure. Antihypertensive responses were measured at the maximal reduction in blood pressure occurring within 30 minutes after drug administration as compared to the baseline measurements taken prior to administration of the compound. The effect on heart rate was determined at the same time the maximum reduction in blood pressure was seen and was also compared with the baseline heart rate prior to compound administration. The results in Table I are reported as the maximal reduction in blood pressure and the corresponding effect on heart rate for certain compounds of formula I. The results are the average of two or more experiments.

[1] = heart rate at the time of maximum reduction in blood pressure vs pre-treatment baseline, minus = decrease, read-out: Effect on heart rate
[2] = maximal reduction in mean arterial blood pressure within 30 minutes of compound administration vs pre-treatment baseline, minus = reduction, read-out: Effect on blood pressure
[3] = heart rate at the time of maximum reduction in blood pressure vs pre-treatment baseline, minus = decrease
[4] = maximal reduction in mean arterial blood pressure within 30 minutes of compound administration vs pre-treatment baseline, minus = reduction

CC(C)CNC1=NC=Cc2ccccc2C1 [Example 18, 2-Isobutylamino-lE-3-benzazepine]
change in vivo at 10 mg/kg [1]: -7%
change in vivo at 10 mg/kg [2]: -17%

NC1=NC=Cc2cc3ccccc3cc2C1 [Example 3, 2-Amino-lH-naphth[2,3-d]azepine]
change in vivo at 10 mg/kg [1]: -20%
change in vivo at 10 mg/kg [2]: -31%

CC(C)NC1=NC=Cc2ccccc2C1 [Example 21, 2-Isopropylamino-lH-3-benzazepine]
change in vivo at 10 mg/kg [1]: -6%
change in vivo at 10 mg/kg [2]: -16%

COc1cc2c(cc1OC)CC(NC1CC1)=NC=C2.Cl [Example 12, 2-Cyclopropylamino-7,8-dimethoxy-lH-3-benzazepine hydrochloride]
Effect on heart rate [3]: -8.0%
Effect on blood pressure [4]: -25.0%

CCOc1cc2c(cc1OC)C=CN=C(N)C2 [Example 37, 2-Amino-8-ethoxy-7-methoxy-lH-3-benzazepine hydrochloride]
change in vivo at 10 mg/kg [1]: -23%
change in vivo at 10 mg/kg [2]: -48%

C#CCNC1=NC=Cc2cc(OC)c(OC)cc2C1 [Example 29, 2-Propargylamino-7,8-dimethoxy-lH-3-benzazepine hydrochloride]
change in vivo at 10 mg/kg [1]: -11%
change in vivo at 10 mg/kg [2]: -29%

CCc1cc2c(cc1CC)CC(N)=NC=C2 [Example 1, 2-Amino-7,8-diethyl-1H-3-benzazepine hydrochloride]
change in vivo at 10 mg/kg [2]: -24%

CCOc1cc2c(cc1OC)CC(NC1CC1)=NC=C2 [Example 25, 2-Cyclopropylamino-7-ethoxy-8-methoxy-lH-3-benzazepine hydrochloride]
change in vivo at 10 mg/kg [1]: -6%
change in vivo at 10 mg/kg [2]: -9%

C1=Cc2ccccc2CC(NC2CC2)=N1 [Example 19, 2-Cyclopropylamino-lH-3-benzazepine]
change in vivo at 10 mg/kg [1]: -8%
change in vivo at 10 mg/kg [2]: -20%

CNC1=NC=Cc2cc(OC)c(OC)cc2C1 [Example 11, 2-Methylamino-7,8-dimethoxy-lH-3-benzazepine]
change in vivo at 10 mg/kg [1]: -7%
change in vivo at 10 mg/kg [2]: -36%

COc1cc2c(cc1OC)CC(NC(C)C)=NC=C2 [Example 15, 2-Isopropylamino-7,8-dimethoxy-lH-3-benzazepine hydrochloride]
change in vivo at 10 mg/kg [1]: -3%
change in vivo at 10 mg/kg [2]: -10%

2-Amino-7,8-dimethoxy-lH-3-benzazepine hydrochloride [Example 6]
Effect on heart rate [3]: -15.0%
Effect on blood pressure [4]: -56.0%

COc1cc2c(cc1C)CC(N)=NC=C2 [Example 8, 2-Amino-7-methoxy-8-methyl-1H-3-benzazepine hydrochloride]
change in vivo at 10 mg/kg [1]: -31%
change in vivo at 10 mg/kg [2]: -54%

NC1=NC=Cc2cc3c(cc2C1)OCO3 [Example 9, 2-Amino-7,8-(methylenedioxy)-lH-3-benzazepine hydrochloride]
change in vivo at 10 mg/kg [1]: -11%
change in vivo at 10 mg/kg [2]: -19%

CCC(C)NC1=NC=Cc2ccccc2C1 (stereo not drawn) [Example 17, 2-Sec-butylamino-lH-3-benzazepine]
change in vivo at 10 mg/kg [1]: -13%
change in vivo at 10 mg/kg [2]: -22%

COc1ccc(OC)c2c1C=CN=C(N)C2 [Example 32, 2-Amino-6,9-dimethoxy-lH-3-benzazepine hydrochloride]
change in vivo at 10 mg/kg [1]: -13%
change in vivo at 10 mg/kg [2]: -32%

2-Amino-7,8-dimethoxy-lH-3-benzazepine [Example 5]
Effect on heart rate [3]: -21.0%
Effect on blood pressure [4]: -43.0%

COc1cc2c(cc1OC)C(C)C(N)=NC=C2 (stereo not drawn) [Example 13, 1-Methyl-2-amino-7,8-dimethoxy-1H-3-benzazepine hydrochloride]
change in vivo at 10 mg/kg [1]: -2%
change in vivo at 10 mg/kg [2]: -22%

COc1cc2c(cc1O)CC(N)=NC=C2 [Example 27, 2-Amino-7-methoxy-8-hydroxy-lE-3-benzazepine hydrochloride]
change in vivo at 10 mg/kg [1]: -12%
change in vivo at 10 mg/kg [2]: -29%

CNC1=NC=Cc2ccccc2C1 [Example 16, 2-Methylamino-1H-3-benzazepine]
change in vivo at 10 mg/kg [1]: -9%
change in vivo at 10 mg/kg [2]: -8%

COc1cc(C)c(OC)c2c1CC(N)=NC=C2 [Example 33, 2-Amino-7-methyl-6,9-dimethoxy-lH-3-benzazepine hydrochloride]
change in vivo at 10 mg/kg [1]: -43%
change in vivo at 10 mg/kg [2]: -47%

C=CCNC1=NC=Cc2cc(OC)c(OC)cc2C1 [Example 23, 2-Allylamino-7,8-dimethoxy-lH-3-benzazepine]
change in vivo at 10 mg/kg [1]: -5%
change in vivo at 10 mg/kg [2]: -15%

NC1=NC=Cc2cc3c(cc2C1)CCCC3 [Example 34, 2-Amino-7,8,9,10-tetrahydro-1H-naphth[2,3-d]-azepine hydrochloride]
change in vivo at 10 mg/kg [1]: -15%
change in vivo at 10 mg/kg [2]: -30%

COc1cc2c(cc1F)CC(N)=NC=C2 [Example 36, 2-Amino-8-fluoro-7-methoxy-1H-3-benzazepine hydrochloride]
change in vivo at 10 mg/kg [1]: -8%
change in vivo at 10 mg/kg [2]: -31%

Cc1ccc(C)c2c1C=CN=C(N)C2 [Example 26, 2-Amino-6,9-dimethyl-lH-3-benzazepine hydrochloride]
change in vivo at 10 mg/kg [2]: -44%

COc1cc2c(cc1O)C=CN=C(N)C2 [Example 28, 2-Amino-7-hydroxy-8-methoxy-1H-3-benzazepine hydrochloride]
change in vivo at 10 mg/kg [1]: 0%
change in vivo at 10 mg/kg [2]: -11%

NC1=NC=Cc2ccc3ccccc3c2C1 [Example 30, 2-Amino-1H-naphth[1,2-d]azepine hydrochloride]
change in vivo at 10 mg/kg [1]: -6%
change in vivo at 10 mg/kg [2]: -37%

CCOc1cc2c(cc1OC)CC(N)=NC=C2 [Example 7, 2-Amino-7-ethoxy-8-methoxy-lH-3-benzazepine hydrochloride]
change in vivo at 10 mg/kg [1]: -3%
change in vivo at 10 mg/kg [2]: -36%

NC1=NC=Cc2ccc([N+](=O)[O-])cc2C1 [Example 10, 2-Amino-8-nitro-lH-3-benzazepine]
change in vivo at 10 mg/kg [1]: -22%
change in vivo at 10 mg/kg [2]: -55%

Cc1cc2c(cc1C)CC(N)=NC=C2 [Example 2, 2-Amino-7,8-dimethyl-lH-3-benzazepine hydrochloride]
change in vivo at 10 mg/kg [1]: -21.7%
change in vivo at 10 mg/kg [2]: -46.7%

C=CCNC1=NC=Cc2ccccc2C1 [Example 20, 2-Allylamino-lE-3-benzazepine]
change in vivo at 10 mg/kg [1]: -15%
change in vivo at 10 mg/kg [2]: -20%

NC1=NC=Cc2cc3c(cc2C1)CCC3 [Example 31, 2-Amino-1,7,8,9-tetrahydroindeno[5,6-d]-azepine hydrochloride]
change in vivo at 10 mg/kg [1]: -16%
change in vivo at 10 mg/kg [2]: -40%

NC1=NC=Cc2ccc3c(c2C1)CCCC3 [Example 35, 2-amino-8,9,10,11-tetra-hydro-lH-naphth[1,2-d]azepine hydrochloride]
change in vivo at 10 mg/kg [1]: -12%
change in vivo at 10 mg/kg [2]: -33%

COc1ccc2c(c1)CC(N)=NC=C2 [Example 4, 2-Amino-8-methoxy-1H-3-benzazepine hydrochloride]
change in vivo at 10 mg/kg [1]: -23.5%
change in vivo at 10 mg/kg [2]: -29.5%

CCNC1=NC=Cc2cc(OC)c(OC)cc2C1 [Example 22, 2-Ethylamino-7,8-dimethoxy-lH-3-benzazepine]
change in vivo at 10 mg/kg [1]: 2%
change in vivo at 10 mg/kg [2]: -13%

Cc1ccc2c(c1)CC(N)=NC=C2 [Example 24, 2-Amino-8-methyl-lH-3-benzazepine]
change in vivo at 10 mg/kg [1]: -22%
change in vivo at 10 mg/kg [2]: -35%

CCOc1cc2c(cc1OCC)CC(N)=NC=C2 [Example 14, 2-Amino-7,8-diethoxy-lH-3-benzazepine hydrochloride]
change in vivo at 10 mg/kg [1]: -8%
change in vivo at 10 mg/kg [2]: -18%
